Measurements from patent US8614214B2, “Pyrazole amide compounds and uses thereof” (Sinochem Corporation, priority 2010, dated 2013).
Like-named read-outs stand apart in the source and are kept apart here.

How the values were obtained:
rice blast [1] = type: in vivo; settings: 600 ppm, field
corn rust = assay: Greenhouse pot seedling assay, corn rust; type: in vivo; settings: for pest or weed control at 400 ppm: Zea mays, 192 h, Table 21, read-out: Biological activity in greenhouse, corn rust; for pest or weed control at 400 ppm / control of corn rust: 400 ppm; for Control (%): comparative test, Table 20
cucumber downy mildew [2] = assay: Greenhouse pot seedling assay, cucumber downy mildew; type: in vivo; settings: for pest or weed control at 400 ppm: Cucumis sativus, 120 h, Table 21, read-out: Biological activity in greenhouse, cucumber downy mildew; for Control (%): comparative test, Table 18
wheat powdery mildew = assay: Greenhouse pot seedling assay, wheat powdery mildew; type: in vivo; settings: for pest or weed control at 400 ppm: Triticum aestivum, 192 h, Table 21, read-out: Biological activity in greenhouse, wheat powdery mildew; for control of wheat powdery mildew: 400 ppm
rice blast [3] = type: cell-based; settings: 25 ppm
cucumber downy mildew [4] = assay: Field trial against cucumber downy mildew; type: in vivo; settings: for Control (%) average: average of 3 replicates; for Control (%) I: replicate I; for Control (%) II: replicate II; for Control (%) III: replicate III
Experimental: The trial was carried out in a greenhouse in July 2011 in […] district, Shanxi Province. Before the treatment, the cucumber plants were at the beginning of infection. The trial method was based on the National Standard of the People's Republic of China-“Pesticide-Guidelines for The Field Efficacy Trials”. […] The Area of plot was 15 m^2, random arrangement and 3 times replication. The volume was about 600 L/hm^2, and water was as the control. Efficacy calculation method is as follows: [formula] [formula]

cucumber downy mildew [5] = assay: Persistence comparative test against cucumber downy mildew (greenhouse); type: in vivo

## O=[N+]([O-])c1cc(C(F)(F)F)c(Cl)c([N+](=O)[O-])c1Nc1ncc(C(F)(F)F)cc1Cl [fluazinam, reference compound]
Rice blast [1]; average of 3 replicates
  Control (%) average: 75%
Rice blast [1]; replicate I
  Control (%) I: 70%
Rice blast [1]; replicate II
  Control (%) II: 75%
Rice blast [1]; replicate III
  Control (%) III: 80%

## CNC(=O)c1ccccc1NC(=O)C(C)Cl (centres unmarked) [VI-54]
Corn rust
  pest or weed control at 400 ppm: 0%
Cucumber downy mildew [2]; 400 ppm
  pest or weed control at 400 ppm: 30%
Wheat powdery mildew
  pest or weed control at 400 ppm: 0%
other
  melting point: 121 to 122 °C

## CCOC(=O)c1ccccc1NC(=O)COc1ccc(CNC(=O)c2c(Cl)c(C)nn2C)cc1 [Compound 95]
Corn rust; greenhouse
  control of corn rust: 100%
Rice blast [3]
  inhibition ratio on spore germination of rice blast: 100%

## CCc1nn(C)c(C(=O)NCCc2ccc(O)cc2)c1Cl [VIII-139]
Corn rust
  pest or weed control at 400 ppm: 0%
Cucumber downy mildew [2]; 400 ppm
  pest or weed control at 400 ppm: 0%
Wheat powdery mildew
  pest or weed control at 400 ppm: 0%

## CNC(=O)c1ccccc1NC(=O)COc1ccc(CNC(=O)c2cc(C)nn2C)cc1 [Compound 2]
Corn rust; greenhouse
  control of corn rust: 100%
Cucumber downy mildew [2]; 25 ppm, greenhouse
  control of cucumber downy mildew: 75%
Cucumber downy mildew [2]; 50 ppm, greenhouse
  control of cucumber downy mildew: 100%
Cucumber downy mildew [2]; 400 ppm, greenhouse
  control of cucumber downy mildew: 100%
Wheat powdery mildew; greenhouse
  control of wheat powdery mildew: 100%
Rice blast [3]
  inhibition ratio on spore germination of rice blast: 100%

## N#Cc1c(Cl)c(Cl)c(Cl)c(C#N)c1Cl [chlorothalonil, reference compound]
Cucumber downy mildew [4]; 800 ppm
  Control (%) average: 74%
  Control (%) I: 68%
  Control (%) II: 73%
  Control (%) III: 81%

## CCCc1nn(C)c(C(=O)NCc2ccc(OCC(=O)Nc3ccccc3C(=O)NC)cc2)c1Cl [Compound 17]
Corn rust; greenhouse
  control of corn rust: 100%

## CCc1nn(C)c(C(=O)NCc2ccc(O[C@H](C)C(=O)Nc3ccccc3C(=O)NC)cc2)c1Cl [Compound 66]
Corn rust; greenhouse
  control of corn rust: 100%
Cucumber downy mildew [2]; 400 ppm, greenhouse
  control of cucumber downy mildew: 100%

## COC(=O)c1ccccc1NC(=O)CCl [VI-20]
Corn rust
  pest or weed control at 400 ppm: 0%
Cucumber downy mildew [2]; 400 ppm
  pest or weed control at 400 ppm: 0%
Wheat powdery mildew
  pest or weed control at 400 ppm: 0%
other
  melting point: 92 to 94 °C

## Cc1nn(C)c(C(=O)NCc2ccc(O)cc2)c1Cl [VIII-1]
Corn rust
  pest or weed control at 400 ppm: 50%
Cucumber downy mildew [2]; 400 ppm
  pest or weed control at 400 ppm: 95%
Wheat powdery mildew
  pest or weed control at 400 ppm: 0%

## CCc1nn(C)c(C(=O)NCc2ccc(OCC(=O)Nc3ccccc3C(=O)NC)cc2)c1Cl [Compound 16]
Corn rust; greenhouse
  control of corn rust: 100%
Cucumber downy mildew [2]; 25 ppm, greenhouse
  control of cucumber downy mildew: 100%
Cucumber downy mildew [2]; 50 ppm, greenhouse
  control of cucumber downy mildew: 100%
Cucumber downy mildew [2]; 400 ppm, greenhouse
  control of cucumber downy mildew: 100%
Wheat powdery mildew; greenhouse
  control of wheat powdery mildew: 100%
Rice blast [3]; in vitro
  inhibition ratio on spore germination of rice blast: 100%
other
  melting point: 160 to 161 °C

## CNC(=O)c1ccccc1NC(=O)CCl [VI-1, 2-(2-chloroacetamido)-N-methylbenzamide]
Corn rust
  pest or weed control at 400 ppm: 0%
Cucumber downy mildew [2]; 400 ppm
  pest or weed control at 400 ppm: 0%
Wheat powdery mildew
  pest or weed control at 400 ppm: 0%
other
  melting point: 155 to 157 °C

## CCOC(=O)c1cccc(C)c1NC(=O)COc1ccc(CNC(=O)c2c(Cl)c(C)nn2C)cc1 [Compound 94]
Corn rust; greenhouse
  control of corn rust: 100%

## COC(=O)c1ccccc1NC(=O)C(C)Cl (centres unmarked) [VI-56]
Corn rust
  pest or weed control at 400 ppm: 30%
Cucumber downy mildew [2]; 400 ppm
  pest or weed control at 400 ppm: 75%
Wheat powdery mildew
  pest or weed control at 400 ppm: 0%
other
  melting point: 63 to 65 °C

## Fc1ccc([C@]2(Cn3cncn3)O[C@H]2c2ccccc2Cl)cc1 (racemic) [epoxiconazole, reference compound]
Corn rust; 3.13 ppm
  Control (%): 40%
Corn rust; 6.25 ppm
  Control (%): 75%
Corn rust; 12.5 ppm
  Control (%): 90%
Corn rust; 25 ppm
  Control (%): 95%
Corn rust; 50 ppm
  Control (%): 100%
Corn rust; 100 ppm
  Control (%): 100%

## COCC(=O)N(c1c(C)cccc1C)C(C)C(=O)OC (centres unmarked) [metalaxyl, reference compound]
Cucumber downy mildew [2]; 6.25 ppm
  Control (%): 0%
Cucumber downy mildew [2]; 12.5 ppm
  Control (%): 7%
Cucumber downy mildew [2]; 25 ppm
  Control (%): 22%
Cucumber downy mildew [2]; 50 ppm
  Control (%): 29%
Cucumber downy mildew [2]; 100 ppm
  Control (%): 59%

## CCOC(=O)c1ccccc1NC(=O)COc1ccc(CNC(=O)c2c(Cl)c(CC)nn2C)cc1 [Compound 99]
Corn rust; greenhouse
  control of corn rust: 100%

## COc1ccc(C(=CC(=O)N2CCOCC2)c2ccc(Cl)cc2)cc1OC [dimethomorph, reference compound]
Cucumber downy mildew [4]; 200 ppm
  Control (%) average: 53%
  Control (%) I: 44%
  Control (%) II: 52%
  Control (%) III: 63%
Cucumber downy mildew [2]; 6.25 ppm
  Control (%): 29%
Cucumber downy mildew [2]; 12.5 ppm
  Control (%): 74%
Cucumber downy mildew [2]; 25 ppm
  Control (%): 85%
Cucumber downy mildew [2]; 50 ppm
  Control (%): 88%
Cucumber downy mildew [2]; 100 ppm
  Control (%): 100%
Cucumber downy mildew [5]; 25 ppm, inoculation 3 days after treatment
  Control (%): 0%
Cucumber downy mildew [5]; 25 ppm, inoculation 7 days after treatment
  Control (%): 0%
Cucumber downy mildew [5]; 50 ppm, inoculation 3 days after treatment
  Control (%): 30%
Cucumber downy mildew [5]; 50 ppm, inoculation 7 days after treatment
  Control (%): 0%
Cucumber downy mildew [5]; 100 ppm, inoculation 3 days after treatment
  Control (%): 44%
Cucumber downy mildew [5]; 100 ppm, inoculation 7 days after treatment
  Control (%): 0%
Cucumber downy mildew [5]; 200 ppm, inoculation 3 days after treatment
  Control (%): 74%
Cucumber downy mildew [5]; 200 ppm, inoculation 7 days after treatment
  Control (%): 44%
Cucumber downy mildew [5]; 400 ppm, inoculation 3 days after treatment
  Control (%): 100%
Cucumber downy mildew [5]; 400 ppm, inoculation 7 days after treatment
  Control (%): 74%

## Cc1nn(C)c(C(=O)NCCc2ccc(O)cc2)c1Cl [VIII-138]
Corn rust
  pest or weed control at 400 ppm: 0%
Cucumber downy mildew [2]; 400 ppm
  pest or weed control at 400 ppm: 0%
Wheat powdery mildew
  pest or weed control at 400 ppm: 0%

## CCc1cc(C(=O)NCc2ccc(OCC(=O)Nc3ccccc3C(=O)NC)cc2)n(C)n1 [Compound 3]
Corn rust
  control of corn rust: 100%
Cucumber downy mildew [2]; 25 ppm
  control of cucumber downy mildew: 95%
Cucumber downy mildew [2]; 50 ppm
  control of cucumber downy mildew: 100%
Cucumber downy mildew [2]; 400 ppm
  control of cucumber downy mildew: 100%
Wheat powdery mildew
  control of wheat powdery mildew: 100%
Rice blast [3]
  inhibition ratio on spore germination of rice blast: 100%

## CCNC(=O)c1cccc(C)c1NC(=O)COc1ccc(CNC(=O)c2cc(C)nn2C)cc1 [Compound 177]
Corn rust; greenhouse
  control of corn rust: 100%
Cucumber downy mildew [2]; 25 ppm, greenhouse
  control of cucumber downy mildew: 100%
Cucumber downy mildew [2]; 50 ppm, greenhouse
  control of cucumber downy mildew: 100%
Cucumber downy mildew [2]; 400 ppm, greenhouse
  control of cucumber downy mildew: 100%
Wheat powdery mildew; greenhouse
  control of wheat powdery mildew: 100%
Rice blast [3]
  inhibition ratio on spore germination of rice blast: 100%

## C[C@@]1(c2ccc(Oc3ccccc3)cc2)OC(=O)N(Nc2ccccc2)C1=O (racemic) [famoxadone, reference compound]
Cucumber downy mildew [2]; 6.25 ppm
  Control (%): 14%
Cucumber downy mildew [2]; 12.5 ppm
  Control (%): 22%
Cucumber downy mildew [2]; 25 ppm
  Control (%): 51%
Cucumber downy mildew [2]; 50 ppm
  Control (%): 74%
Cucumber downy mildew [2]; 100 ppm
  Control (%): 81%

## Cc1nn(C)c(C(=O)NCc2ccc(OCC(=O)Nc3ccccc3C(N)=O)cc2)c1Cl [Compound 156]
Corn rust; greenhouse
  control of corn rust: 100%

## CCc1nn(C)c(C(=O)NCc2ccc(O[C@@H](C)C(=O)Nc3ccccc3C(=O)NC)cc2)c1Cl [Compound 69]
Corn rust; greenhouse
  control of corn rust: 100%
Cucumber downy mildew [2]; 400 ppm, greenhouse
  control of cucumber downy mildew: 100%

## CNC(=O)c1ccccc1NC(=O)COc1ccc(CN)cc1 [II-1, 2-(2-(4-(aminomethyl)phenoxy)acetamido)-N-methylbenzamide]
Corn rust
  pest or weed control at 400 ppm: 0%
Cucumber downy mildew [2]; 400 ppm
  pest or weed control at 400 ppm: 0%
Wheat powdery mildew
  pest or weed control at 400 ppm: 100%
other
  melting point: 109 to 110 °C
